Source: paper PMC9358002, “Synthesis and Discovery of Ligustrazine–Heterocycle Derivatives as Antitumor Agents” (Frontiers in Chemistry, 2022)

Tests used:
MDA-MB-231 cells [1] = assay: Hoechst 33 342 staining of MDA-MB-231 cells; assay type: cell-based, human; details: 1.0 μM, 48 h
Method: The induction of apoptosis by compound 12–9 was visually evaluated in MDA-MB-231 cells by Hoechst 33 342 staining. The test cells were transferred to six-well plates at a density of 1 × 10^5 cells. […] Then, the MDA-MB-231 cells were stained with Hoechst 33 342 solution (10 μg/ml in the culture medium, Beyotime Institute of Biotechnology, Shanghai, China) at 37°C in a dark room for 20 min after incubation with the test compound 12–9. The cells were then washed twice with a serum-free medium to remove the leftover dye. The apoptotic cells stained by Hoechst 33 342 were imaged using CLSM (Carl-Zeiss LSM 710).

MDA-MB-231 cells [2] = assay: Apoptosis analysis by annexin V-FITC/PI staining (flow cytometry); assay type: cell-based, human; details: 48 h; for apoptotic ratio: control 13.7%
Method: Apoptosis induced by TMPH compound 12–9 was evaluated by annexin V-FITC/PI staining. Briefly, MDA-MB-231 cells in the logarithmic growth phase were cultured in a six-well plate and incubated for 24 h at 37°C under a humid atmosphere containing 5% CO2. […] The incubated cells were washed twice with PBS, digested by trypsin, and centrifuged at 1,000 rpm for 5 min. The collected MDA-MB-231 cells were transferred to a 1.5-ml tube and resuspended in a solution of 200 μl of annexin V-FITC and 5 μl of PI. After incubation in a dark environment (covered with aluminum foil) for 15 min at room temperature, the collected cells were evaluated by flow cytometry (CyFlow®Cube 6, Sysmex). The apoptosis analysis data were shown as a pseudo color map and analyzed by FlowJo software.

MDA-MB-231 cells [3] = assay: Clonal formation assay of MDA-MB-231 cells; assay type: cell-based, human; details: 0.5, 1.0 and 2.0 μM for 10 days
Method: Human breast cancer MDA-MB-231 cells were cultured in a six-well plate with 1,500 cells per well and incubated for 24 h at 37°C under a humid atmosphere containing 5% CO2. Then, the MDA-MB-231 cells were incubated with compound 12–9 at final concentrations of 0, 0.5, 1.0, and 2.0 μM for 10 days. The treated cells were washed with PBS and fixed with 4% paraformaldehyde for 15 min at room temperature. Then, the end product of the cell colonies was visualized by staining with 0.1% crystal violet for 10 min. The images were photographed using a handy camera, and the number of cell colonies was assessed using open Image J software (National Institutes of Health). Each experiment was repeated three times. A group of >50 cells was defined as one colony formation.

[4] = test system: human breast cancer MCF-7; assay: MTT antiproliferative assay, MCF-7; assay type: cell-based; details: Homo sapiens, MCF7, 48 h, 0–50 μM, read-out: Antiproliferative activity IC50 ± SEM, MCF-7
Method: (§1) The in vitro antiproliferative activity of 33 TMPH compounds was evaluated by MTT assay ([Medica et al., 2022]). Five types of TNBC-related cell lines (human breast cancer MCF-7 and MDA-MB-231, mouse breast cancer 4T1, mouse fibroblast L929, and human umbilical vein endothelial HUVEC cell lines) were used. The cell lines were obtained from the Shanghai Institute of Biochemistry and Cell Biology of the Chinese Academy of Sciences (Shanghai, China). The cell lines were cultured in DMEM supplemented with 1% penicillin–streptomycin solution (100×) and 10% FBS at 37°C under a humid atmosphere containing 5% CO2. After cell passage, cryopreservation, and resuscitation, the growth-inhibitory effects against the five cell lines were determined by MTT assay. The 33 TMPH compounds and the reference control drug cisplatin were dissolved in 0.1% DMSO solution. The cell lines were maintained in 96-well plates and subjected to each test compound (0–50 μM) at 37°C for 48 h. After treatment with 1 mg/ml MTT solution for 4 h, the formazan crystals were dissolved in each well. A microplate reader (Varioskan Flash 3001, Thermo Scientific) was used to determine the cell viability at 490 nm, and each experiment was repeated four times. The collected data were expressed as the mean ± SEM. The inhibitory concentration of the 34 compounds at 50% (IC50) was calculated via concentration–inhibition relationship regression by SPSS software.

[5] = test system: human umbilical vein endothelial HUVEC; assay: MTT antiproliferative assay, HUVEC; assay type: cell-based; details: Homo sapiens, HUVEC, 48 h, 0–50 μM, read-out: Antiproliferative activity IC50 ± SEM, HUVEC
Method: as §1

[6] = test system: human breast cancer MDA-MB-231; assay: MTT antiproliferative assay, MDA-MB-231; assay type: cell-based; details: for IC50: Homo sapiens, MDA-MB-231, MTT, 48 h, 0–50 μM, read-out: Antiproliferative activity IC50 ± SEM, MDA-MB-231; for SI, selectivity index: SI = IC50 (L929)/IC50 (MDA-MB-231)
Method: as §1

mouse breast cancer 4T1 = assay: MTT antiproliferative assay, 4T1; assay type: cell-based; details: Mus musculus, 48 h, 0–50 μM, read-out: Antiproliferative activity IC50 ± SEM, 4T1
Method: as §1

mouse fibroblast L929 = assay: MTT antiproliferative assay, L929; assay type: cell-based; details: Mus musculus, L929, 48 h, 0–50 μM, read-out: Antiproliferative activity IC50 ± SEM, L929
Method: as §1

[7] = test system: MCF-7, MDA-MB-231, 4T1, L929 and HUVEC cell lines; assay: MTT antiproliferative assay, statements over all five tested cell lines; assay type: cell-based; details: range over all five tested cell lines, read-out: IC50 values ranging over the tested cell lines
Method: as §1

IC50 [4] [nM]	IC50 [6] [nM]	IC50 (mouse breast cancer 4T1) [nM]	Structure (SMILES)	IC50 [5] [µM]	SI, selectivity index [6]	IC50 (mouse fibroblast L929) [µM]	IC50 [7] [µM]	further results
1110 ± 150	840 ± 20	1160 ± 180	Cc1nc(C)c(C(=O)NCCCCCCCCCCCCNC(=O)c2ccc3cc[nH]c3c2)nc1C [12–9]	3.82 ± 0.24	3.76	3.16 ± 0.13	1.61 to 19.5	apoptotic morphology, Hoechst 33 342 staining (MDA-MB-231 cells [1]): appeared shrunken and showed strong blue fluorescence; Q1, necrotic cells (annexin V−/PI+) (MDA-MB-231 cells [2]; 0.5 μM): 0.20; Q2, late apoptotic or necrotic cells (annexin V+/PI+) (MDA-MB-231 cells [2]; 0.5 μM): 15.2; Q3, early apoptotic cells (annexin V+/PI−) (MDA-MB-231 cells [2]; 0.5 μM): 8.76; Q4, living cells (annexin V−/PI−) (MDA-MB-231 cells [2]; 0.5 μM): 75.9; apoptotic ratio (MDA-MB-231 cells [2]; 0.5 μM): 23.96%; Q1, necrotic cells (annexin V−/PI+) (MDA-MB-231 cells [2]; 1.0 μM): 0.37; Q2, late apoptotic or necrotic cells (annexin V+/PI+) (MDA-MB-231 cells [2]; 1.0 μM): 24.8; Q3, early apoptotic cells (annexin V+/PI−) (MDA-MB-231 cells [2]; 1.0 μM): 7.84; Q4, living cells (annexin V−/PI−) (MDA-MB-231 cells [2]; 1.0 μM): 67.0; apoptotic ratio (MDA-MB-231 cells [2]; 1.0 μM): 32.64%; Q1, necrotic cells (annexin V−/PI+) (MDA-MB-231 cells [2]; 2.0 μM): 1.03; Q2, late apoptotic or necrotic cells (annexin V+/PI+) (MDA-MB-231 cells [2]; 2.0 μM): 35.3; Q3, early apoptotic cells (annexin V+/PI−) (MDA-MB-231 cells [2]; 2.0 μM): 11.6; Q4, living cells (annexin V−/PI−) (MDA-MB-231 cells [2]; 2.0 μM): 52.1; apoptotic ratio (MDA-MB-231 cells [2]; 2.0 μM): 46.9%; colony formation versus untreated control (MDA-MB-231 cells [3]): significantly fewer and smaller
2210 ± 150	1640 ± 120	2690 ± 40	COc1cc(C=CC(=O)NCCCCCCCCCCCCNC(=O)c2nc(C)c(C)nc2C)cc(OC)c1OC [12–12]	12.2 ± 0.2	11.50	18.9 ± 0.44	1.61 to 19.5	–
1610 ± 80	5010 ± 160	4760 ± 450	Cc1nc(C)c(C(=O)NCCCCCCCCCCCCNC(=O)c2ccc3ccccc3c2)nc1C [12–13]	10.7 ± 1.06	1.77	8.89 ± 0.12	1.61 to 19.5	–
